Read-outs that look alike come from different tables or passages of the source.
Biological target: T1, F508delCFTR (Homo sapiens, UniProt P13569, DEL508-508)
T1 construct: expressed in transfected cells; host or cells: CFBE41o- human lung-derived epithelial cells (CFBE4lo-F508delCFTR-HRP), doxycycline-inducible
Test: Cell Surface Expression-Horse Radish Peroxidase (CSE-HRP) Assay;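 for Maximum % activity (with co-corrector): co-corrector and positive control are both the same reference corrector at 2 µM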;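 for Maximum % activity (without co-corrector): percent of the 2 µM on-plate positive control corrector response above DMSO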
Assay type: cell-based
Conditions: for Emax / Maximum % activity (with co-corrector): maximum at any tested concentration, normalized to on-plate positive control; for Emax: read-out: Maximum % activity (without co-corrector); for Maximum % activity (with co-corrector): with co-corrector (2 μM)

[1] = test compound without co-corrector
[2] = test compound without co-corrector, read-out: EC50 (without co-corrector)
[3] = with co-corrector (2 μM of 3-[(2R,4R)-4-({[1-(2,2-difluoro-1,3-benzodioxol-5-yl)cyclopropyl]carbonyl}amino)-7-methoxy-3,4-dihydro-2H-chromen-2-yl]benzoic acid), read-out: EC50 (with co-corrector)

T1 sequence (P13569 with tags, fused parts or gaps DEL508-508): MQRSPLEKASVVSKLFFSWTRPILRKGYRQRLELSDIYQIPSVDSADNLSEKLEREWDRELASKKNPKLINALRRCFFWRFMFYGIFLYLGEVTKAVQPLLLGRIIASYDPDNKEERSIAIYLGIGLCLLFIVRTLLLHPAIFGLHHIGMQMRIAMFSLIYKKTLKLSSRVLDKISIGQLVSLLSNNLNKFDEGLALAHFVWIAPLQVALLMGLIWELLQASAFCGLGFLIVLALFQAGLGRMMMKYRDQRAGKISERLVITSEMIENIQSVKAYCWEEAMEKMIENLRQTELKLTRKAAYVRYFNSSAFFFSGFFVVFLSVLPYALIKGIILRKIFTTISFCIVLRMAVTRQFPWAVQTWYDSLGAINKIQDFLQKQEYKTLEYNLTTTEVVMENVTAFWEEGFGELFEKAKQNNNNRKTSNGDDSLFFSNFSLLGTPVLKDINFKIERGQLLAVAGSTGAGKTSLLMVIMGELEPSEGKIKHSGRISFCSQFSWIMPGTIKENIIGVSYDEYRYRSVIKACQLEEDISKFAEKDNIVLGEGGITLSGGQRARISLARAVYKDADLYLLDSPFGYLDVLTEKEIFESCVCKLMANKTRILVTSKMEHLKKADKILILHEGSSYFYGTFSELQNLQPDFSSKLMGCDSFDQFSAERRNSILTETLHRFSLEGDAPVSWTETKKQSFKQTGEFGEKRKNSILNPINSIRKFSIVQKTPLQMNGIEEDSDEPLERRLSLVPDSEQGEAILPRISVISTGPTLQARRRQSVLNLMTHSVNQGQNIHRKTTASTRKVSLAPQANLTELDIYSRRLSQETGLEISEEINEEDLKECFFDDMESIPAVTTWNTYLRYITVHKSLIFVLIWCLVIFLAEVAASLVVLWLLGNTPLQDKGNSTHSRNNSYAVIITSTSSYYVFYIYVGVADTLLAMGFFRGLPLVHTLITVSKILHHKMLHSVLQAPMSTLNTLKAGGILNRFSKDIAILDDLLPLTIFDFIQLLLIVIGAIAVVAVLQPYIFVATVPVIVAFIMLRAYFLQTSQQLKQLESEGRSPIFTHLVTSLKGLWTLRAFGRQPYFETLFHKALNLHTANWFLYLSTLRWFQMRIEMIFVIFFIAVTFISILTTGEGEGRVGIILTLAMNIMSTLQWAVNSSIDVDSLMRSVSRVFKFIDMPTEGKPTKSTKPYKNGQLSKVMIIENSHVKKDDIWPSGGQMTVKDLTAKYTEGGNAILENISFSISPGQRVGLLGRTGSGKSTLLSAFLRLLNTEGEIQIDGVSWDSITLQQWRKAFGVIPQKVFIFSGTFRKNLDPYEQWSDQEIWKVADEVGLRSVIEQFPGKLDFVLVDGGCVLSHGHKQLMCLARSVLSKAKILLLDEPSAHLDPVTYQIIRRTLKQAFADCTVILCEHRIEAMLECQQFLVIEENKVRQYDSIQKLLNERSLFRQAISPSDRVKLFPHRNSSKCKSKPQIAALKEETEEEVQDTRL

Compound	Emax [1] [%]	EC50 [2] [nM]	EC50 [3] [nM]	Maximum % activity (with co-corrector)
COc1ccc(C(F)(F)F)cc1CN[C@@H]1[C@@H](C(C)(C)C)[C@H](C(=O)O)N(C(=O)C2CCCCC2)[C@H]1c1ccccc1 [III-199]	< 100	1000 to 10000	1000 to 10000	++ (≥150 and <350)
COc1ncc(C(F)(F)F)cc1CN[C@H]1[C@H](C(C)(C)C)[C@@H](C(=O)O)N(C(=O)[C@@H]2OCC[C@@H]2Cn2cccn2)[C@H]1c1ccccc1 [III-200]	< 100	> 10000	1000 to 10000	++ (≥150 and <350)
COc1ncc(C(F)(F)F)cc1CN[C@H]1[C@H](C(C)(C)C)[C@@H](C(=O)O)N(C(=O)C2CC(C)CC(C)C2)[C@H]1c1ccccc1 (some centres unmarked) [III-201]	100 to 200	< 1000	< 1000	+++ (≥350)
COc1ccc(C(C)(C)C)cc1CN[C@H]1[C@H](C(C)(C)C)[C@@H](C(=O)O)N(C(=O)C2CCCC(C)(C)C2)[C@H]1c1ccccc1 (some centres unmarked) [III-203]	> 200	< 1000	< 1000	+++ (≥350)
COc1ccc(C(C)(C)C)cc1CN[C@H]1[C@H](C(C)(C)C)[C@@H](C(=O)O)N(C(=O)C2CCCC2(C)C)[C@H]1c1ccccc1 (some centres unmarked) [III-204]	> 200	< 1000	< 1000	+++ (≥350)
COc1ccc(C(C)(C)C)cc1CN[C@H]1[C@H](C(C)(C)C)[C@@H](C(=O)O)N(C(=O)C2CCCCC2C)[C@H]1c1cccnc1N(C)C (some centres unmarked) [III-205]	> 200	1000 to 10000	< 1000	+++ (≥350)
COc1ccc(C(C)(C)C)cc1CN[C@H]1[C@H](C(C)(C)C)[C@@H](C(=O)O)N(C(=O)C2CCCC(C(F)(F)F)C2)[C@H]1c1cccnc1N(C)C (some centres unmarked) [III-206]	> 200	1000 to 10000	< 1000	+++ (≥350)
COc1ncc(C2CCC2)cc1CN[C@H]1[C@H](C(C)(C)C)[C@@H](C(=O)O)N(C(=O)C2CC(C)CC(C)C2)[C@H]1c1ccccc1 (some centres unmarked) [III-207]	100 to 200	1000 to 10000	< 1000	+++ (≥350)
COc1ncc(C2CCC2)cc1CN[C@H]1[C@H](C(C)(C)C)[C@@H](C(=O)O)N(C(=O)C2CCCC(C(F)(F)F)C2)[C@H]1c1ccccc1 (some centres unmarked) [III-209]	100 to 200	1000 to 10000	< 1000	+++ (≥350)
COc1ccc(C(C)(C)C)cc1CN[C@H]1[C@H](C(C)(C)C)[C@@H](C(=O)O)N(C(=O)C2CCc3cc(F)ccc3O2)[C@H]1c1cccnc1N(C)C (some centres unmarked) [III-210]	< 100	1000 to 10000	1000 to 10000	++ (≥150 and <350)
COc1ncc(C(F)(F)F)cc1N[C@H]1[C@H](C(C)(C)C)[C@@H](C(=O)O)N(C(=O)[C@H]2CCCCO2)[C@H]1c1cccnc1N(C)C [III-213]	< 100	> 10000	> 10000	+ (<150)
COc1ncc(C2CCC2)cc1CN[C@H]1[C@H](C(C)(C)C)[C@@H](C(=O)O)N(C(=O)C2CCCCC2C(F)(F)F)[C@H]1c1ccccc1 (some centres unmarked) [III-214]	100 to 200	< 1000	< 1000	+++ (≥350)
COc1ccc(C(C)(C)C)cc1CN[C@H]1[C@H](C(C)(C)C)[C@@](C)(C(=O)O)N(C(=O)[C@H](OC)c2ccccc2)[C@H]1c1ccccc1 [III-215]	< 100	1000 to 10000	1000 to 10000	++ (≥150 and <350)
COc1ccc(C23CC(C2)C3)cc1CN[C@H]1[C@H](C(C)(C)C)[C@@H](C(=O)O)N(C(=O)OC(C)C)[C@H]1c1cccnc1OC(F)F [III-218]	100 to 200	1000 to 10000	1000 to 10000	+++ (≥350)
COc1nc(C(C)(C)C)ccc1CN[C@H]1[C@H](C(C)(C)C)[C@@H](C(=O)O)N(C(=O)OC(C)C)[C@H]1c1cccnc1N(C)C [III-219]	100 to 200	1000 to 10000	< 1000	+++ (≥350)
COc1ccc(C23CC(C2)C3)cc1CN[C@H]1[C@H](C(C)(C)C)[C@@H](C(=O)O)N(C(=O)OC(C)C)[C@H]1c1ccccc1C(C)C [III-220]	> 200	< 1000	< 1000	+++ (≥350)
COc1ncc(C(F)(F)F)cc1CN[C@H]1[C@H](C23CC(C2)C3)[C@@H](C(=O)O)N(C(=O)OC(C)C)[C@H]1c1ccccc1 [III-221]	100 to 200	1000 to 10000	1000 to 10000	+++ (≥350)
COc1cc2c(cc1CN[C@H]1[C@H](C(C)(C)C)[C@@H](C(=O)O)N(C(=O)OC(C)C)[C@H]1c1ccccc1)C(C)(C)CCC2(C)C [III-227]	100 to 200	1000 to 10000	< 1000	+++ (≥350)

Other lines, results leading:

Emax [1] [%]	EC50 [2] [nM]	EC50 [3] [nM]	Maximum % activity (with co-corrector)	Compound
> 200	< 1000	< 1000	+++ (≥350)	COc1ccc(C23CC(C2)C3)cc1CN[C@H]1[C@H](C(C)(C)C)[C@@H](C(=O)O)N(C(=O)C2CCCCC2)[C@H]1c1ccccc1 [III-202]
100 to 200	1000 to 10000	< 1000	+++ (≥350)	COc1ncc(C2CCC2)cc1CN[C@H]1[C@H](C(C)(C)C)[C@@H](C(=O)O)N(C(=O)C2CCCCC2C)[C@H]1c1ccccc1 (some centres unmarked) [III-208]
< 100	> 10000	1000 to 10000	++ (≥150 and <350)	COc1ncc(C(F)(F)F)cc1N[C@H]1[C@H](C(C)(C)C)[C@@H](C(=O)O)N(C(=O)[C@H]2CCCC[C@@H]2C(F)(F)F)[C@H]1c1cccnc1N(C)C [III-212]
< 100	1000 to 10000	1000 to 10000	++ (≥150 and <350)	Cc1cc(C(F)(F)F)cc(N[C@H]2[C@H](C(C)(C)C)[C@@H](C(=O)O)N(C(=O)[C@H]3CCCCO3)[C@H]2c2cccnc2N(C)C)n1 [III-216]
< 100	> 10000	1000 to 10000	+ (<150)	COc1ccc(C(C)(C)C)cc1CN[C@H]1[C@H](C(C)(C)C)[C@@H](C(=O)O)N(C(=O)N(C(C)C)C(C)C)[C@H]1c1ccccc1 [III-217]
100 to 200	1000 to 10000	1000 to 10000	+++ (≥350)	COc1ccc(C(C)(C)C)cc1CN[C@H]1[C@H](C23CC(C2)C3)[C@@H](C(=O)O)N(C(=O)OC(C)C)[C@H]1c1ccccc1F [III-222]
> 200	1000 to 10000	1000 to 10000	+++ (≥350)	COc1ncc(C2CCC2)cc1CN[C@H]1[C@H](C(C)(C)C)[C@@H](C(=O)O)N(C(=O)OC(C)C)[C@H]1c1cccnc1N(C)C [III-224]
> 200	1000 to 10000	1000 to 10000	+++ (≥350)	COc1ccc(SC(F)(F)F)cc1CN[C@H]1[C@H](C(C)(C)C)[C@@H](C(=O)O)N(C(=O)OC(C)C)[C@H]1c1cccnc1N(C)C [III-225]
> 200	1000 to 10000	1000 to 10000	+++ (≥350)	COc1cc2c(cc1CN[C@H]1[C@H](C(C)(C)C)[C@@H](C(=O)O)N(C(=O)OC(C)C)[C@H]1c1ccccc1)CCC2 [III-226]
> 200	1000 to 10000	< 1000	+++ (≥350)	COc1ccc(C(C)(C)C)cc1CN[C@H]1[C@H](C(C)(C)C)[C@@H](C(=O)O)N(C(=O)OC(C)C)[C@H]1c1cccnc1OC(C)C [III-229]
< 100	1000 to 10000	1000 to 10000	++ (≥150 and <350)	COc1ccc(C(C)(C)C)cc1CN[C@H]1[C@H](C(C)(C)C)[C@@H](C(=O)O)N(C(=O)[C@]2(C)COc3cc4c(cc32)OC(F)(F)O4)[C@H]1c1cccnc1OC [III-230]

— patent publication US20180099931A1 (AbbVie S.à.r.l., priority 2016, published 2018)
